{"source": "patent US12390430B1", "about": "(SpringWorks Therapeutics, Inc., priority 2024, dated 2025)", "key": {"[1]": {"assay": "Human plasma protein binding", "type": "in vitro ADME"}, "[2]": {"assay": "Excretion of radioactivity and unchanged mirdametinib", "type": "in vivo"}, "[3]": {"assay": "Clinical pharmacokinetics of mirdametinib (Table A)", "type": "in vivo, human", "conditions": "for Tmax / AUC(0-t) / Cmax: human, plasma; for Tmax: oral, read-out: Tmax [median (range)]; for AUC(0-t) / Cmax: po, steady state, BID oral dosing; for AUC(0-t): read-out: Steady-state exposure AUClast [geometric mean (geometric % CV)]; for Cmax: read-out: Steady-state exposure Cmax [geometric mean (geometric % CV)]", "protocol": "Study treatment was administered orally at a twice daily (BID) dose specified in the table below. Dosing was on a 28-day Cycle (4-week course) with a 3 week on/1 week off schedule. The treatment period will last for up to 24 Cycles followed by a 30-day Safety Follow-Up period."}, "[4]": {"conditions": "geometric least squares mean ratio"}, "[5]": {"conditions": "pediatric patients (2 to <18 years)"}}, "note": "Where two headings read alike, the source gives them in different places.", "data": [{"smiles": "O=C(NOC[C@H](O)CO)c1ccc(F)c(F)c1Nc1ccc(I)cc1F", "note": "(single isomer, unassigned) [mirdametinib]", "values": [{"measurement": "fraction unbound", "setting": "[1]", "result": "< 0.01"}, {"measurement": "Excretion: radioactivity in feces", "setting": "[2]; feces", "result": "In feces: 27%"}, {"measurement": "Excretion: radioactivity in urine", "setting": "[2]; urine", "result": "In urine: 68%"}, {"measurement": "Excretion: unchanged mirdametinib in urine", "setting": "[2]; urine", "result": "In urine: 0.7%"}, {"measurement": "Excretion: unchanged mirdametinib in urine and feces", "setting": "[2]; urine and feces", "result": "In urine and feces: 9%"}, {"measurement": "Food effect on AUCinf [GMR% (90% CI)]", "setting": "[3]; [4]", "result": "93% (90%, 96%)"}, {"measurement": "Food effect on Cmax [GMR% (90% CI)]", "setting": "[3]; [4]", "result": "57% (54%, 61%)"}, {"measurement": "Tmax", "setting": "[3]; capsule", "result": 64.8, "unit": "min"}, {"measurement": "Tmax", "setting": "[3]; tablet", "result": 49.8, "unit": "min"}, {"measurement": "AUC(0-t)", "setting": "[3]; adult patients (>18 years)", "result": 431, "unit": "ng·h/mL"}, {"measurement": "Cmax", "setting": "[3]; adult patients (≥18 years)", "result": 188, "unit": "ng/mL"}, {"measurement": "AUC(0-t)", "setting": "[3]; [5]", "result": 459, "unit": "ng·h/mL"}, {"measurement": "Cmax", "setting": "[3]; [5]", "result": 191, "unit": "ng/mL"}]}]}
